Results on 21 compounds are retold here after patent US7598279B2, “Neurotherapeutic azole compounds” (SK Holdings Co., Ltd., priority 2005, dated 2009).

Holding throughout (type): in vivo
In test [1] the test system is mice. In words: Forced swimming test (FST). Conditions: 30 min after dosing. On the procedure: The “Forced swimming test (FST)” for antidepressant activity was also carried out. The procedure employed in the FST for antidepressant is as follows. The compounds to be tested were dissolved in 30% PEG400 and administered ip and po into animals. 30 min later, the immobility time during post 4 minutes of 6 minutes experiment time was measured.

For test [2], the system named is mice. In words: Maximal ElectroShock (MES)-induced tonic seizure test. Conditions: Mus musculus; for ED50: read-out: Mice MES ED50 (mpk/peak time); for responders at 30 mg/kg: read-out: Mice MES Protection % (mpk/peak time). The procedure:
The “Maximal ElectroShock (MES)” test is a well-established pharmacological screening method for anticonvulsants against tonic-clonic seizures. The procedure employed in the MES test for anticonvulsants is as follows. The compounds to be tested were dissolved in 30% PEG400 and administered ip and po into animals. After the designated number of hours, maximal electroshock (50 mA, 60 Hz, 0.2 sec) was applied into animals via corneal electrodes using IITC Life Science model 11A Shocker. […] Median efficacy dose (ED50) levels were determined using three different dose levels with at least 8 mice in each group.

In test [3] the test system is mice. As to the kind of experiment: Pentylenetetrazol (PTZ)-induced clonic seizure test. Conditions: Mus musculus; for responders at 30 mg/kg: read-out: Mice PTZ Protection % (mpk/peak time). The procedure:
The “Pentylenetetrazol (PTZ)” test for anticonvulsant and antianxiety activity was also carried out.
The procedure employed in the PTZ test is as follows. The compounds to be tested were dissolved in 30% PEG400 and administered ip and po into animals. After the designated number of hours, each animal was injected subcutaneously with 100 mg/kg of PTZ (CD97 dose) and observed for up to 30 minutes for the presence or absence of clonic spasms over 5 seconds. Median efficacy dose (ED50) levels were determined using three different dose levels with 8 mice in each group.

Setting [4] is: 3 mice, 30 mpk, 0.5, 1, 2, 4 hr.

As for `NC(=O)O[C@@H](Cn1nccn1)c1ccc(Cl)c(Cl)c1` [Example 91, Carbamic acid (R)-1-(3,4-dichloro-phenyl)-2-[1,2,3]triazol-2-yl-ethyl ester], the “Mice FST Reduction of immobility %” value in test [1] (dose not given) stood at 94.0%. For the same compound, in test [2] (0.5 h), the ED50 stood at 16 mg/kg.

Regarding `O=C(OC(COc1ccc(Cl)c(Cl)c1)Cn1nccn1)N1CCC(CCc2ccccc2)C1` (stereo not shown) [Example 207, 3-Phenethyl-pyrrolidine-1-carboxylic acid 2-(3,4-dichloro-phenoxy)-1-[1,2,3]triazol-2-ylmethyl-ethyl ester], the “Mice FST Reduction of immobility %” value in test [1] (dose not given) worked out at 43.4%. The responders at 30 mg/kg in test [2] (3 mice, 30 mpk, 0.5, 1, 4 hr) stood at 100%.

Take `O=C(OC(COc1ccc(Cl)cc1Cl)Cn1nccn1)N1CCC(CCc2ccccc2)C1` (stereo not shown) [Example 206, 3-Phenethyl-pyrrolidine-1-carboxylic acid 2-(2,4-dichloro-phenoxy)-1-[1,2,3]triazol-2-ylmethyl-ethyl ester]: the “Mice FST Reduction of immobility %” value in test [1] (dose not given) was determined as 51.4%. In addition, the responders at 30 mg/kg is 100% in test [2] (setting [4]) and 66.7% in test [3] (3 mice, 30 mpk, 2, 4 hr).

With `NC(=O)O[C@@H](Cn1ncnn1)c1ccc(Cl)cc1` [Example 42, Carbamic acid (R)-1-(4-chloro-phenyl)-2-tetrazol-2-yl-ethyl ester], in test [1] (dose not given), the “Mice FST Reduction of immobility %” value stood at 44.1%. The ED50 in test [2] (0.5 h) is 18.2 mg/kg.

As for `O=C(OC(Cn1ncnn1)c1ccccc1Cl)N1CCC(Cc2ccc(Cl)cc2)C1` (stereo not shown) [Example 196, 3-(4-Chloro-benzyl)-pyrrolidine-1-carboxylic acid 1-(2-chloro-phenyl)-2-tetrazol-2-yl-ethyl ester], the “Mice FST Reduction of immobility %” value in test [1] is listed as “N.S”. In addition, the ED50 in test [2] (0.5 h) amounted to 15.3 mg/kg. Moreover, in test [3] (4 h), the responders at 30 mg/kg was determined as 33.3%.

As for `NC(=O)OC(Cn1nccn1)c1ccc(Cl)cc1` (stereo not shown) [Example 10, Carbamic acid 1-(4-chloro-phenyl)-2-[1,2,3]triazol-2-yl-ethyl ester], the “Mice FST Reduction of immobility %” value in test [1] (dose not given) was 45.1%. The ED50 in test [2] (0.5 h) worked out at 21.3 mg/kg.

Consider `O=C(OC(Cn1nccn1)c1ccccc1Cl)N1CCC(Cc2ccc(Cl)c(Cl)c2)CC1` (stereo not shown) [Example 200, 4-(3,4-Dichloro-benzyl)-piperidine-1-carboxylic acid 1-(2-chloro-phenyl)-2-[1,2,3]triazol-2-yl-ethyl ester], for which the “Mice FST Reduction of immobility %” value in test [1] (dose not given) is given as 25.9%. Further, in test [2] (3 mice, 30 mpk, 0.5, 4 hr), the responders at 30 mg/kg was 100%.

As to `O=C(OC(Cn1ncnn1)c1ccccc1Cl)N1CCC(CCc2ccccc2)C1` (stereo not shown) [Example 181, 3-Phenethyl-pyrrolidine-1-carboxylic acid 1-(2-chloro-phenyl)-2-tetrazol-2-yl-ethyl ester], the “Mice FST Reduction of immobility %” value in test [1] (dose not given) turned out to be 30.6%. In addition, in test [2] (0.5 h), the ED50 stood at 12.1 mg/kg. Moreover, the responders at 30 mg/kg in test [3] (4 h) was 33.3%.

With `O=C(OC(Cn1ncnn1)c1cc(Cl)ccc1Cl)N1CCC(CCc2ccccc2)C1` (stereo not shown) [Example 202, 3-Phenethyl-pyrrolidine-1-carboxylic acid 1-(2,5-dichloro-phenyl)-2-tetrazol-2-yl-ethyl ester], the “Mice FST Reduction of immobility %” value in test [1] (dose not given) is given as 81.2%. The ED50 in test [2] (mice, peak time 0.5 hr) is 11.4 mg/kg. The responders at 30 mg/kg in test [3] (3 mice, 30 mpk, 1, 4 hr) was 33.3%.

Turning to `NC(=O)OC(Cc1ccccc1)Cn1ncnn1` (stereo not shown) [Example 116, Carbamic acid 2-phenyl-1-tetrazol-2-ylmethyl-ethyl ester], the “Mice FST Reduction of immobility %” value in test [1] (dose not given) came out at 30.0%. In addition, the responders at 30 mg/kg in test [2] (1 h) worked out at 100%; in test [3] (2 h) it was 33.3%.

For `O=C(OC(Cn1ncnn1)c1ccc(Cl)c(Cl)c1)N1CCC(CCc2ccccc2)C1` (stereo not shown) [Example 204, 3-Phenethyl-pyrrolidine-1-carboxylic acid 1-(3,4-dichloro-phenyl)-2-tetrazol-2-yl-ethyl ester], the “Mice FST Reduction of immobility %” value in test [1] (dose not given) turned out to be 51.2%. Further, the responders at 30 mg/kg in test [2] (3 mice, 30 mpk, 0.5, 1, 2 hr) was found to be 100%.

As for `O=C(OC(Cn1ncnn1)c1ccc(Cl)c(Cl)c1)N1CCC(Cc2ccc(Cl)c(Cl)c2)CC1` (stereo not shown) [Example 195, 4-(3,4-Dichloro-benzyl)-piperidine-1-carboxylic acid 1-(3,4-dichloro-phenyl)-2-tetrazol-2-yl-ethyl ester], the “Mice FST Reduction of immobility %” value in test [1] (dose not given) is recorded as 31.9%. Moreover, the ED50 in test [2] (mice, peak time 0.5 hr) came to 15.3 mg/kg. Moreover, in test [3] (3 mice, 30 mpk, 0.5, 1 hr), the responders at 30 mg/kg was determined as 33.3%.

Consider `O=C(OC(Cn1ncnn1)c1ccc(Cl)cc1Cl)N1CCC(Cc2ccc(Cl)c(Cl)c2)CC1` (stereo not shown) [Example 194, 4-(3,4-Dichloro-benzyl)-piperidine-1-carboxylic acid 1-(2,4-dichloro-phenyl)-2-tetrazol-2-yl-ethyl ester], for which the “Mice FST Reduction of immobility %” value in test [1] (dose not given) is 53.4%. The ED50 in test [2] (0.5 h) was determined as 11.9 mg/kg. In addition, the responders at 30 mg/kg in test [3] (2 h) amounted to 33.3%.

Take `O=C(OC(Cn1cnnn1)c1ccccc1Cl)N1CCC(Cc2ccc(Cl)c(Cl)c2)CC1` (stereo not shown) [Example 201, 4-(3,4-Dichloro-benzyl)-piperidine-1-carboxylic acid 1-(2-chloro-phenyl)-2-tetrazol-1-yl-ethyl ester]: in test [1] (dose not given), the “Mice FST Reduction of immobility %” value came to 54.0%. Also, the responders at 30 mg/kg in test [2] (3 mice, 30 mpk, 1, 2, 4 hr) is 100%.

As for `O=C(OC(Cn1ncnn1)c1cc(Cl)ccc1Cl)N1CCC(Cc2ccc(Cl)c(Cl)c2)CC1` (stereo not shown) [Example 191, 4-(3,4-Dichloro-benzyl)-piperidine-1-carboxylic acid 1-(2,5-dichloro-phenyl)-2-tetrazol-2-yl-ethyl ester], the “Mice FST Reduction of immobility %” value in test [1] (dose not given) was 50.6%. Further, in test [2] (4 h), the responders at 30 mg/kg is 66.7%. Also, in test [3] (sc, read-out: Mice PTZ ED50 (mpk/peak time)), the ED50 is greater than 30 mg/kg.

`O=C(OC(COc1cc(Cl)ccc1Cl)Cn1ncnn1)N1CCC(CCc2ccccc2)C1` (stereo not shown) [Example 208, 3-Phenethyl-pyrrolidine-1-carboxylic acid 2-(2,5-dichloro-phenoxy)-1-tetrazol-2-ylmethyl-ethyl ester]: the “Mice FST Reduction of immobility %” value in test [1] (dose not given) was found to be 48.2%. Further, the responders at 30 mg/kg in test [2] (3 mice, 30 mpk, 0.5, 1, 4 hr) came to 100%; in test [3] (3 mice, 30 mpk, 4 hr) it was 33.3%.

In the case of `O=C(OC(Cn1ncnn1)c1ccc(Cl)cc1Cl)N1CCC(CCc2ccccc2)C1` (stereo not shown) [Example 203, 3-Phenethyl-pyrrolidine-1-carboxylic acid 1-(2,4-dichloro-phenyl)-2-tetrazol-2-yl-ethyl ester], the “Mice FST Reduction of immobility %” value in test [1] (dose not given) was determined as 44.0%. In test [2] (setting [4]), the responders at 30 mg/kg was 100%.

Take `NC(=O)OC(Cn1nccn1)c1ccccc1C(F)(F)F` (stereo not shown) [Example 39, Carbamic acid 2-[1,2,3]triazol-2-yl-1-(2-trifluoromethyl-phenyl)-ethyl ester]: the ED50 in test [2] (0.5 h) was 12.5 mg/kg.

For the compound `O=C(OC(Cn1ncnn1)c1ccccc1Cl)N1CCC(Cc2ccc(Cl)c(Cl)c2)CC1` (stereo not shown) [Example 175, 4-(3,4-Dichloro-benzyl)-piperidine-1-carboxylic acid 1-(2-chloro-phenyl)-2-tetrazol-2-yl-ethyl ester], in test [1], the “Mice FST Reduction of immobility %” value is on record as “N.S”. Further, in test [2] (0.5 h), the ED50 came out at 20.2 mg/kg. Besides, the responders at 30 mg/kg in test [3] (4 h) was 66.7%.

Turning to `NC(=O)OC(Cn1ncnn1)c1ccc(Cl)cc1` (stereo not shown) [Example 5, Carbamic acid 1-(4-chloro-phenyl)-2-tetrazol-2-yl-ethyl ester], in test [1] (dose not given), the “Mice FST Reduction of immobility %” value worked out at 71.7%. Also, the ED50 in test [2] (0.5 h) amounted to 18.4 mg/kg.

Take `O=C(OC(Cn1ncnn1)c1ccccc1Cl)N1CCC(Cc2cc(C(F)(F)F)cc(C(F)(F)F)c2)CC1` (stereo not shown) [Example 197, 4-(3,5-Bis-trifluoromethyl-benzyl)-piperidine-1-carboxylic acid 1-(2-chloro-phenyl)-2-tetrazol-2-yl-ethyl ester]: in test [1], the “Mice FST Reduction of immobility %” value was “N.S”. Further, the ED50 in test [2] (0.5 h) turned out to be 6.3 mg/kg. Besides, the responders at 30 mg/kg in test [3] (4 h) came out at 100%.
